Laboratory results reported in paper PMC5131395, “Asperterpenes A and B, two unprecedented meroterpenoids from Aspergillus terreus with BACE1 inhibitory activities” (Chemical Science, 2016).

Target: BACE1 (Homo sapiens, UniProt P56817)
Experiment: cell-based FRET peptide cleavage assay, HEK-293 cells

BACE1, sequence (P56817 46-501): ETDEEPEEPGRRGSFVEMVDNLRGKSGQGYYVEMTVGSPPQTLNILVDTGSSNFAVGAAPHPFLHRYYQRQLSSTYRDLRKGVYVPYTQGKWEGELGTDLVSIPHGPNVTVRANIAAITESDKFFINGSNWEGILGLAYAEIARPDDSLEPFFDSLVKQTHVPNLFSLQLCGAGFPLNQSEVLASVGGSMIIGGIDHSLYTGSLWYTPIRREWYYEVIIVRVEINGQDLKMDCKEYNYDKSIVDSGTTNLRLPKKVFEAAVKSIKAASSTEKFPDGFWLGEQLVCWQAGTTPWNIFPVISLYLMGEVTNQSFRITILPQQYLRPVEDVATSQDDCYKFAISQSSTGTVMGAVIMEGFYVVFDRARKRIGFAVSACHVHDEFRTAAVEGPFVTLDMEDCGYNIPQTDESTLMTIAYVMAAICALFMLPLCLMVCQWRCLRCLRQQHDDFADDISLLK

COC(=O)C1=C(C)[C@@]2(C)C[C@H]3[C@@]4(C)CCC(=O)C(C)(C)[C@@H]4CC[C@]3(C)[C@@](C)(C1=O)C2=O [compound 1, asperterpene A]
IC50: 78 nM

COC(=O)CC[C@@]1(C)[C@H](C(C)(C)O)CC[C@@]2(C)[C@H]1C[C@@]1(C)C(=O)[C@]2(C)C(=O)C(C(=O)OC)=C1C [compound 2, asperterpene B]
IC50: 59 nM
